The values that follow come from patent US20100240537A1, “Substituted 6-(alkylbenzylamino)purine derivatives for use as cytokinin receptor antagonists and preparations containing these derivatives” (priority 2007, published 2010).

One assay has as its target T1, AHK3 (Arabidopsis thaliana, UniProt Q9C5U1).
T1 construct: expressed in transfected cells; host or cells: Escherichia coli KMI001, plasmid pSTV28-AHK3
T1 sequence (Q9C5U1 1-1036): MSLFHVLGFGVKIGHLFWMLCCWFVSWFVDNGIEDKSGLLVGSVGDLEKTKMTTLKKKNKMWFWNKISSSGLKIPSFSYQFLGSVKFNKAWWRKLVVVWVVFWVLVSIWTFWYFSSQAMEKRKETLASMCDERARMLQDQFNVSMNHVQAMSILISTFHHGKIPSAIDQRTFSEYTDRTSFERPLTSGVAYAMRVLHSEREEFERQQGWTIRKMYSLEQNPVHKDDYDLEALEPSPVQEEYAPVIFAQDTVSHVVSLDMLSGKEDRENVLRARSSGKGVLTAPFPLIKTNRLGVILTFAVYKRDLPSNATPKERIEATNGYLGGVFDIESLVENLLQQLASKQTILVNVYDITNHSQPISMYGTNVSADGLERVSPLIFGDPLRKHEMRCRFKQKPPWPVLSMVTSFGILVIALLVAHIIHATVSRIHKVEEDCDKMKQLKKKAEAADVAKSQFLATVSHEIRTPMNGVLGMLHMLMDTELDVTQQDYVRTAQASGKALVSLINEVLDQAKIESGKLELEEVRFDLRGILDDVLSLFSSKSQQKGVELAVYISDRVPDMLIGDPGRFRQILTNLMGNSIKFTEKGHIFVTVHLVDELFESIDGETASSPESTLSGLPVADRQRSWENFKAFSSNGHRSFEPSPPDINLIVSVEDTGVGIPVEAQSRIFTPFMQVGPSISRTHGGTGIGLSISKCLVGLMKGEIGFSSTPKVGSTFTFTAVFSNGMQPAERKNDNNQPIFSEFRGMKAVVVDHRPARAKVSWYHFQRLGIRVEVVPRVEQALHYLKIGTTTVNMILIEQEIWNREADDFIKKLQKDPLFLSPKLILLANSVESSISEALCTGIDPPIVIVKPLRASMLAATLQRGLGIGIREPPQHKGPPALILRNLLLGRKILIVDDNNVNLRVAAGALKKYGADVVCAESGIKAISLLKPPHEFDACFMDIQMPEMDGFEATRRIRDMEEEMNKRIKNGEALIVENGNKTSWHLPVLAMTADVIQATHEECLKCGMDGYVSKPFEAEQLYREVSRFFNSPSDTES
Put plainly: Activation of cytokinin receptor AHK3 in E. coli KMI001 (β-galactosidase reporter). The class given is cell-based. As to conditions: E. coli KMI001 pSTV28-AHK3, 28 h incubation, n.i. means without interaction. On the procedure: (§1) Escherichia coli strains KMI001 harbouring the plasmid pIN-III-AHK4 or pSTV28-AHK3 were grown overnight at 25° C. in M9 media enriched with 0.1% casamino acids to OD600˜1. The preculture was diluted 1:600 in 1 ml M9 medium containing 0.1% casamino acids and 1 μl stock solution of either the tested compound (10^−7 M−5×10^−5 M) or solvent control (DMSO, ethanol, methanol) were added. The cultures were further grown at 25° C. in microtiter plate, 200 μl per well. […] The cultures were centrifuged and 50 μl aliquots of the supernatant were transferred to microtiter plate containing 2 μl 50 mM 4-methyl umbelliferyl galactoside which was subsequently incubated for 1 h at 37° C. The reaction was stopped by adding 100 μl 0.2 M Na2CO3. Fluorescence was measured using a Fluoroscan Ascent (Labsystems, Finland) at the excitation and emission wavelengths of 365 and 460 nm, respectively. The OD600 of remaining culture was determined and β-galactosidase activity was calculated as nmol 4-methylumbelliferone×OD600^−1×h^−1.
(§2) The EC50 value, the compound concentration activating the receptor to 50%, was calculated from the obtained dose response curves. The compound functioning as cytokinin antagonists should not activate cytokinin signalling pathway. The values shown in Table 2 are means of three replicates and the entire test was repeated at least twice.

A further assay has as its target T2, CRE1/AHK4 (Arabidopsis thaliana, UniProt Q9C5U0).
T2 construct: expressed in transfected cells; host or cells: Escherichia coli KMI001, plasmid pIN-III-AHK4
Put plainly: Activation of cytokinin receptor CRE1/AHK4 in E. coli KMI001 (β-galactosidase reporter). The settings on record: E. coli KMI001 pIN-III-AHK4, 17 h incubation; n.i. means without interaction. Type of assay: cell-based. Here is the method:
as §1, §2

Some results are limits rather than exact numbers.

T2 sequence (Q9C5U0 whole entry): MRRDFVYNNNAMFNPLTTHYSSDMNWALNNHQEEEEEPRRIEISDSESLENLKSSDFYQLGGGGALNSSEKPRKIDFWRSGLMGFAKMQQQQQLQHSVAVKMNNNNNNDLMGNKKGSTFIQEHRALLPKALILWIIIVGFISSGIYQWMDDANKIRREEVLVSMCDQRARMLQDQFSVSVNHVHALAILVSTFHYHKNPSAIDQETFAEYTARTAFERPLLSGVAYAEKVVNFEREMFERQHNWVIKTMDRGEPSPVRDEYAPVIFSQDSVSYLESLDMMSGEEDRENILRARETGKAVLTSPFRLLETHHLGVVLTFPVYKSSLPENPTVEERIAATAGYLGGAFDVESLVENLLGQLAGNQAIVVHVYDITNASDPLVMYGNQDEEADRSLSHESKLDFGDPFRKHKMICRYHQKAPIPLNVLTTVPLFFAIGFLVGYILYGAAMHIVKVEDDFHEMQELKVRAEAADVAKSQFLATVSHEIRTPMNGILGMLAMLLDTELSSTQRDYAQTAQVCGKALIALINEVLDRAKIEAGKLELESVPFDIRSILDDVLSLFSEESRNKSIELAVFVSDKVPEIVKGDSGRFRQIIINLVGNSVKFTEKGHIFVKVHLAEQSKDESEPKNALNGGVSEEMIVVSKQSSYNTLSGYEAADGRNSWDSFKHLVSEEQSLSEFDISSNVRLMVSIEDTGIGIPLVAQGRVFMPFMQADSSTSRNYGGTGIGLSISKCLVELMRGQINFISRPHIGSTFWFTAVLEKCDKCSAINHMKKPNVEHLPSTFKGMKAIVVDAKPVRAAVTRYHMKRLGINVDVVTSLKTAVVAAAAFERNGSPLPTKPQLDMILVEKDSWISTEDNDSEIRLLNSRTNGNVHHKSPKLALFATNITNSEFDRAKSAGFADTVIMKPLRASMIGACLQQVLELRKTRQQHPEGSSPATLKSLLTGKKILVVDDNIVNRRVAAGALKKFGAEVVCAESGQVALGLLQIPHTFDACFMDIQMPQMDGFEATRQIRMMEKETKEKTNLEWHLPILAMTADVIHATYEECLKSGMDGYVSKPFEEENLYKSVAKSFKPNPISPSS

Take `CCc1ccc(O)c(CNc2ncnc3nc[nH]c23)c1` [Compound 13, 6-(2-hydroxy-5-ethylbenzylamino)purine]: the “EC50 AHK3 (activation of cytokinin receptor)” value (from here on “EC50 AHK3”) on AHK3 is given as “n.i”. Besides, the “EC50 CRE1/AHK4 (activation of cytokinin receptor)” value (“EC50 CRE1/AHK4” below) at CRE1/AHK4 is reported as “n.i”.
The like results for `Cc1ccc([N+](=O)[O-])c(CNc2ncnc3nc[nH]c23)c1` [Compound 16, 6-(2-nitro-5-methylbenzylamino)purine] were, in that order, “n.i” and “n.i”.
With `Cc1ccc(CNc2ncnc3nc[nH]c23)c(O)c1` [Compound 9, 6-(2-hydroxy-4-methylbenzylamino)purine], the “EC50 AHK3” value on AHK3 is “n.i”. Besides, the “EC50 CRE1/AHK4” value on CRE1/AHK4 is on record as “n.i”.
Consider `Cc1cccc(CNc2ncnc3nc[nH]c23)c1[N+](=O)[O-]` [Compound 15, 6-(2-nitro-3-methylbenzylamino)purine], for which, at AHK3 (read-out: EC50 AHK3 (activation of cytokinin receptor)), the EC50 (usually the concentration needed to bring the measured effect to its halfway point) is greater than 100 µM. Besides, on CRE1/AHK4, the “EC50 CRE1/AHK4” value is “n.i”.
`CCc1cccc(CNc2ncnc3nc[nH]c23)c1O` [Compound 12, 6-(2-hydroxy-3-ethylbenzylamino)purine]: the “EC50 AHK3” value on AHK3 is recorded as “n.i”. On CRE1/AHK4, the “EC50 CRE1/AHK4” value is “n.i”.
The like results for `CCc1cccc(CNc2ncnc3nc[nH]c23)c1[N+](=O)[O-]` [Compound 17, 6-(2-nitro-3-ethylbenzylamino)purine] were, in that order, “n.i” and “n.i”.
The matching figures for `Cc1cc(C)c(N)c(CNc2ncnc3nc[nH]c23)c1` [Compound 21, 6-(2-amino-3,5-dimethylbenzylamino)purine]: “n.i” and “n.i”.
The like results for `Cc1ccc(CNc2ncnc3nc[nH]c23)c(N)c1` [Compound 2, 6-(2-amino-4-methylbenzylamino)purine] were, in that order, “n.i” and “n.i”.
As for `Cc1cccc(CNc2ncnc3nc[nH]c23)c1N` [Compound 1, 6-(2-amino-3-methylbenzylamino)purine], the “EC50 AHK3” value on AHK3 is “n.i”. The “EC50 CRE1/AHK4” value on CRE1/AHK4 is “n.i”.
The matching figures for `CCc1ccc(N)c(CNc2ncnc3nc[nH]c23)c1` [Compound 5, 6-(2-amino-5-ethylbenzylamino)purine]: “n.i” and “n.i”.
For the compound `CCc1cccc(CNc2ncnc3nc[nH]c23)c1N` [Compound 4, 6-(2-amino-3-ethylbenzylamino)purine], at AHK3, the “EC50 AHK3” value is given as “n.i”. Moreover, at CRE1/AHK4, the “EC50 CRE1/AHK4” value is recorded as “n.i”.
For `Cc1ccc(CNc2ncnc3nc[nH]c23)c(O)c1C` [Compound 24, 6-(2-hydroxy-3,4-dimethylbenzylamino)purine], the “EC50 AHK3” value on AHK3 is “n.i”. Moreover, the “EC50 CRE1/AHK4” value at CRE1/AHK4 is given as “n.i”.
The matching figures for `Cc1ccc(N)c(CNc2ncnc3nc[nH]c23)c1` [Compound 3, 6-(2-amino-5-methylbenzylamino)purine]: “n.i” and “n.i”.
The like results for `Cc1cc(C)c(O)c(CNc2ncnc3nc[nH]c23)c1` [Compound 23, 6-(2-hydroxy-3,5-dimethylbenzylamino)purine] were, in that order, “n.i” and “n.i”.
